Reference: patent publication US7834040B2, “Isoxazolic derivative to relieve neuropathic pain” (Zambon S.p.A., priority 2004, dated 2010)
Entries after “also recorded” stand apart in the source; their conditions may differ.

Tests used:
[1] = test system: neuropathic pain caused by chronic constrictive lesion of the sciatic nerve of the rat's hind leg (CCI); experiment: Mechanical allodinia in the CCI model of neuropathic pain (chronic constrictive lesion of the sciatic nerve); assay type: in vivo, male rats of Wistar strain
From the text: The effectiveness of the compound of formula (I) has been tested experimentally in two different models of neuropathic pain caused by chronic constrictive lesion of the sciatic nerve of the rat's hind leg (CCI) and by the ligament of the rat's spinal nerve (SNL), according to the procedure reported in the following experimental part. To a group of male rats of Wistar strain a peripheral neuropathy has been induced by means of ligature of the sciatic nerve (CCI) according to the Bennet and Xie model (Pain 33:87-107, 1988). In order to evaluate the neuropathic pain, the development of mechanical allodinia was measured by calculating the average of the pain perception thresholds in the animals' legs in response to mechanical stimuli, following the method described by Chaplan et al. (Journal Neurosci. Method. 53:55-63, […]). In the first group of experiments the measurements have been carried out before and 14 days after the ligature of the […] (CCI). In the second group of experiments the same parameter has been similarly evaluated before and 14 days after the ligature of the spinal nerve (SNL). In both groups, the mechanical allodinia threshold has been measured before (pre-treatment) and 0.5, 1, 2, 4 and 6 hours after treatment by oral route with the compound of formula (I) at doses of 3, 30 and 300 mg/kg.

[2] = test system: neuropathic pain caused by the ligament of the rat's spinal nerve (SNL); experiment: Mechanical allodinia in the SNL model of neuropathic pain (ligature of the spinal nerve); assay type: in vivo, male rats of Wistar strain
From the text: The effectiveness of the compound of formula (I) has been tested experimentally in two different models of neuropathic pain caused by chronic constrictive lesion of the sciatic nerve of the rat's hind leg (CCI) and by the ligament of the rat's spinal nerve (SNL), according to the procedure reported in the following experimental part. To a second group of male rats of Wistar strain a peripheral neuropathy has been induced by means of ligature of the spinal nerve according to the modified method described by Kim and Chung and which is constituted by the ligature of two (L5-L6) of the three spinal nerves which form the sciatic nerve (Pain 50:355-363, 1992). In order to evaluate the neuropathic pain, the development of mechanical allodinia was measured by calculating the average of the pain perception thresholds in the animals' legs in response to mechanical stimuli, following the method described by Chaplan et al. (Journal Neurosci. Method. 53:55-63, […]). In the first group of experiments the measurements have been carried out before and 14 days after the ligature of the […] (CCI). In the second group of experiments the same parameter has been similarly evaluated before and 14 days after the ligature of the spinal nerve (SNL). In both groups, the mechanical allodinia threshold has been measured before (pre-treatment) and 0.5, 1, 2, 4 and 6 hours after treatment by oral route with the compound of formula (I) at doses of 3, 30 and 300 mg/kg.

neuropathic pain = conditions: Rashid et al., J. Pharmacol. Exp. Ther. 303:226-231, 2002; cited from earlier work
[3] = oral route, 3, 30 and 300 mg/kg, 0.5-6 hours after treatment, 14 days after ligature

## Cc1cc(C(=O)NCCCC(=O)O)on1 [compound of formula (I)]
[1]; oral route
  dose from which the antiallodinic effect is statistically significative: ≥ 3 mg/kg
  time after treatment up to which the antiallodinic effect is detected: up to 6 hours
[1]; [3]
  mechanical allodinia (pain perception threshold to mechanical stimuli): reduced in a dose-depending way the mechanical allodinia; also recorded: marked reduction in the neuropathic allodinia
[2]; oral route
  dose from which the antiallodinic effect is statistically significative: ≥ 3 mg/kg
  time after treatment up to which the antiallodinic effect is detected: up to 6 hours
[2]; [3]
  mechanical allodinia (pain perception threshold to mechanical stimuli): reduced in a dose-depending way the mechanical allodinia; also recorded: marked reduction in the neuropathic allodinia

## CC[C@H](C(N)=O)N1CCCC1=O [levitiracetam]
Neuropathic pain
  analgesic effect with respect to the neuropathic pain: do not produce significant analgesic effects

## Cc1cccc(C)c1NC(=O)CN1CCCC1=O [nefiracetam]
Neuropathic pain
  analgesic effect with respect to the neuropathic pain: powerful analgesic effect

## NC(=O)CN1CC(O)CC1=O (stereo not shown) [oxiracetam]
Neuropathic pain
  analgesic effect with respect to the neuropathic pain: do not produce significant analgesic effects

## NC(=O)CN1CCCC1=O [piracetam]
Neuropathic pain
  analgesic effect with respect to the neuropathic pain: do not produce significant analgesic effects
